These results are taken from a melting point compilation (Tetko et al.; mined from patent text by program, amines drawn as free bases though some values may be those of a salt).

SMILES strings stand for the structures.

As to `CSc1nc([C@@H]2C[C@H]2c2nc3ccccc3n2C)cc(-n2nc(C)nc2C)n1` (relative stereo), the melting point lay within 157 to 159 °C.
Then `Cc1cccc2ncc(C(=O)NC(C)(C)C)c(=O)n12`, with 164 to 166 °C; and `O=c1[nH]c(=O)n(Cc2ccc(Cl)cc2)c2nc[nH]c12`, with 304 to 310 °C.
Then `CCC1Cc2cc(OCC(=O)O)c(Cl)cc2C1=O` (stereo not given), with 132 to 138 °C; and `CCC1(CC)C(=O)Nc2ccc(-c3cccc(Cl)c3)cc21`, with 156 to 159 °C.
Then `O=c1nc(-c2ccc(CO)cn2)sc2ccccc12`, with 247 to 248 °C; and `COc1ccc(C(=O)Nc2ccccc2)cc1NCc1ccc(F)c(F)c1`, with 150 to 152 °C; and `CC(=O)CNC1(c2ccc(OCCCN(C)C3CCCCC3)cc2)Sc2ccccc2N(C)C1=O` (stereo not given), with 119 to 120 °C.
Take `O=C(O)Cc1ccc(C(=O)c2ccc(Cl)cc2)n1Cc1ccccc1`: the melting point is 162 to 163 °C.
Then `CC12CCC(C(=Cc3ccc(OCCO)cc3)C1=O)C2(C)C` (stereo not given), with 68 °C.
With `COc1ccccc1-c1ccc2cnc(NC(=O)Nc3ccc(N4CCN(C)CC4)cc3)nn12` the figure was 229 to 231 °C; with `COc1cc(C2C(C(=O)O)c3ccccc3C(=O)N2C)cc(OC)c1OC` (stereo not given), 194 to 195 °C; with `CC(C)(Cn1cnc2c(N)nc3ccccc3c21)CC1(C)OCCO1`, 153 to 155 °C.
Consider `CC(C)(C)[N+]([O-])=Cc1ccc(OCc2ccccc2)cc1`, for which the melting point was found to be 11 °C.
Then `CN1CCC(c2ccccc2)(N2CCCC2)C(O)C1` (stereo not given), with 149 to 151 °C; and `CCCCCCn1c(C)cc(C)c(C(=O)O)c1=O`, with 79 to 82.5 °C.
With `COc1ccc(N2C(=O)CN(C(C)C)C2=O)c(F)c1` the figure was 88 to 90 °C.
With `Cc1cccc(NC(=O)CN2CCN(c3ccccc3C)CC2)c1` the figure was 104 to 106 °C; with `CC(=O)C(=Cc1cc(O)c(O)c([N+](=O)[O-])c1)c1ccccc1`, 170 to 176 °C; with `O=C1OC(c2ccccc2)(c2ccccc2)C2CN(S(=O)(=O)c3ccccc3)CCN12` (stereo not given), 236 to 237 °C.
The molecule `CSc1c(CC(C)(C)C(=O)O)n(Cc2ccc(Cl)cc2)c2ccc(C(C)C)cc12` displayed a melting point of 143 to 144 °C.
Turning to `Cc1cccc2c1CC(n1ccnc1C(N)=O)C2=O` (stereo not given), the melting point came out at 160 °C.
Then `OCCOc1ccc(I)cc1`, with 76 to 77 °C; and `CCCCC(C(=O)N1CCCCC1)c1ccc(C(=O)O)cc1` (stereo not given), with 142 °C; and `Cc1nc(-n2ccc(O)cc2=O)sc1C(=O)NCc1ccccc1`, with 240 to 243 °C.
Then `Cc1cc(C#N)ccc1-c1ccc(C=O)cc1`, with 130 °C; and `C#CCN1C(=O)CCc2cc(Cl)cc(Cl)c21`, with 92 to 95 °C.
With `C=CC(=O)OCCCCCCCCOc1ccc(-c2ccc(OCCCCCCCCOC(=O)C=C)c(F)c2)cc1F` the figure was 56.1 to 57.9 °C; with `COc1ccc2c(c1)Oc1ccc(Cl)cc1NC2`, 113 to 115 °C.
`Cc1nc(N2C(=O)N(Cc3ccc(C(F)(F)F)cc3)CC2O)sc1C(=O)NCc1cccnc1` (stereo not given) gave a melting point of 171 to 172 °C.
With `CCC(=O)Nc1cccc(-c2ccnc3c(C(=O)c4ccco4)cnn23)c1` the figure was 185 to 186 °C; with `Nc1cccc(NC(=O)C(=O)C(=O)O)c1`, 246 °C; with `CC(=O)NNc1ccc(NC(=S)Nc2ccccc2)cc1`, 205 to 207 °C.
Then `CCC1(CCCCN2CCN(c3ccc(Cl)cc3)CC2)C(=O)Nc2cc(F)ccc21` (stereo not given), with 145 to 147 °C; and `O=Cc1cc(OCCCC(=O)O)ccc1[N+](=O)[O-]`, with 112 to 114 °C; and `COC(=O)c1ccc(C(=O)c2ccc(CCl)cc2)cc1`, with 122 to 125 °C.
With `CC(C)Cn1c(CN)c(-c2ccccc2)c2cc(/C=C/C(N)=O)ccc2c1=O` the figure was 228 to 230 °C.
With `Cc1ccc(-c2c(NS(=O)(=O)c3ccc(C(C)(C)C)cc3)ncnc2OCCOc2ccc(-c3nnn[nH]3)cc2)cc1`, the melting point was 165 to 166 °C.
With `CCOC(=O)c1cn(Cc2ccccc2)nc1OCc1ccc(OCc2nc(-c3ccco3)oc2C)c(C)c1` the figure was 120 to 121 °C.
With `COCc1cc(Cl)c2cccc(OC)c2n1` the figure was 67 to 69 °C; with `CC(=O)OC[C@H]1CCn2c(cc3ccccc32)C1`, 63 to 64 °C.
Then `CC(C)(C)OC(=O)N1CCCN(c2ncnc3ccccc23)CC1`, with 55 to 59 °C; and `CCn1nc(OCC(=O)C(C)(C)C)c(-c2ccc(F)cc2)c1-c1ccc(S(C)(=O)=O)cc1`, with 144 to 146 °C.
Turning to `O=c1oc2c(c(O)c1C(c1ccccc1)C1CC1)CCCCC2CC1CC1` (stereo not given), the melting point was in the range of 77 to 83 °C.
As to `CC(c1oc2ccccc2c(=O)c1-c1ccccc1)n1ncc2c(N)ncnc21` (stereo not given), the melting point lay within 226 to 227 °C.
`CC(C)c1ccc(C2(OC(=O)c3ccccc3)C(=O)c3ccccc3C2=O)c(O)c1` had a melting point of 117 to 119 °C.
Then `COc1ccc(C[C@@H](CO)NC(=O)c2cccnc2Br)cc1OC`, with 136 to 138 °C; and `O=C1c2ccccc2C(=O)N1Cc1ccncc1`, with 164 to 165 °C; and `C[C@@H](O)c1nccc(N2CCc3ccc(S(=O)(=O)N(C)C)cc3C2)n1`, with 120 to 122 °C.
Then `CCN(CC)C(=O)COc1cc(-c2ccccc2)nc2ccccc12`, with 97 °C.
With `CN1NC(=O)C2C(C1=O)C2(C)C` (stereo not given) the figure was 151 to 154 °C.
As to `OCc1c(F)c(Cl)c(F)c(Cl)c1F`, the melting point fell in the range of 67 to 68 °C.
With `N#Cc1ccc(C=C2CCCC2)s1` the figure was 98 to 100 °C; with `O=C(Nc1ccc(N2CCS(=O)(=O)CC2)c(C(F)(F)F)c1)c1cccc2cc(Oc3cc(NC(=O)C4CC4)ncn3)ccc12`, 195 to 205 °C; with `CC(C)(C)OC(=O)NC(CO)C(c1ccccc1)c1ccccc1` (stereo not given), 95 to 96 °C.
`Cc1cccc(C)c1NC(=O)CN1CCNC(C)C1c1ncnc2sccc12` (stereo not given): the melting point lay in the range of 184 to 185 °C.
Then `ON=Cc1cccc(Oc2ccccc2)c1`, with 45 to 46 °C.
With `Cc1nn(-c2cncc(F)c2)cc1I` the figure was 87 to 88 °C.
With `O=C(O)COc1ccc(Cl)cc1-c1ccc(C(=O)N2CCCC2)c(C(F)(F)F)c1` the figure was 197 to 198 °C; with `Cc1c(NC(=O)CC(CSC(=O)Cc2ccccc2)c2ccccc2)cccc1C(=O)O` (stereo not given), 135 to 137 °C; with `CS(=O)(=O)Nc1cc2occ(-n3cccc3)c(=O)c2cc1Oc1ccccc1`, 238 to 240 °C.
`COCC(CCO)(OC)c1cccc(OCc2ccc3ccccc3c2)c1` (stereo not given) returned a melting point of 64 to 65 °C.
With `CCOC(=O)C1=C(C)NC(C)=C(C(=O)OCC)C1c1ccccc1C=CC(=O)OC`, the melting point is 138 to 140 °C.
With `C=C1CCCc2ccc(OCc3ccc4ccccc4n3)cc21` the figure was 56 to 58 °C; with `Cc1cc(S(=O)(=O)N2CCCCC2)c(O)c2c1CCC2=O`, 188 to 189 °C; with `CC(C)(S)CNC(=O)CCC(=O)O`, 86 to 87 °C.
Then `COC(=O)c1ccc(NC(=O)c2sc3ccc(OC)cc3c2Cl)cc1`, with 205 to 206 °C; and `C=CCc1c(OCC(O)CN2CCN(Cc3ccc(Cl)cc3)CC2)ccc2c(OCc3ccccc3)cc(=O)oc12` (stereo not given), with 155 to 157 °C; and `CC(=O)Oc1ccccc1-c1ccc(C(C)=O)cc1`, with 116 to 117 °C.
Then `Nc1cc(C(c2cc(F)ccc2F)S(=O)(=O)c2ccc(Cl)cc2)c(Cl)cn1` (stereo not given), with 147 to 150 °C; and `CSc1cc2n(c(=O)n1)C(c1ccccc1)N=C2` (stereo not given), with 198 to 199 °C.
`CCn1c(=O)c2c(nc(/C=C/c3ccc(OS(=O)(=O)C(F)(F)F)c(OC)c3)n2C)n(CC)c1=O` yielded a melting point of 250 to 251 °C.
Then `O=c1[nH]c2ncc(-c3ccn[nH]3)nc2n1CC1CCCCC1`, with 264 to 266 °C; and `Cc1ccc(-c2cnc(N)c(C(=O)Nc3cccnc3)n2)cc1C`, with 178 to 182 °C.
For the molecule `Cc1cc(C)c(N)cn1`, the melting point was in the range of 62 to 64 °C.
With `CCn1c(N)c(-c2ncc[nH]2)c(=O)c2ccc(-c3ccc(CC(=O)NCc4ccncc4)nc3)nc21` the figure was 120 °C; with `Cc1ccc(S(=O)(=O)OCC(C)(O)C(=O)c2ccccc2)cc1` (stereo not given), 88 to 90 °C.
Regarding `COC(=O)c1cccn1Cc1ccccc1N`, the melting point was in the range of 95 to 97 °C.
With `Cc1noc(NS(=O)(=O)c2ccccc2-c2ccc(-c3cccnc3)cc2)c1C` the figure was 96 to 106 °C; with `COC(=O)C1=NNC(C)=C(C(=O)OC)C1c1ccccc1` (stereo not given), 187 °C.
With `CC(C)C(C(=O)O)c1ccc(OC(F)F)c([N+](=O)[O-])c1` (stereo not given) the figure was 88 to 90 °C; with `COC(=O)c1ccc(-c2nc(-c3ccc(C(C)(C)C)cc3)no2)c(N)c1`, 195 to 196 °C; with `CN1C(=O)N(C[C@@H](CCS(=O)(=O)c2ccc(Oc3ccc(F)cc3)cc2)N(O)C=O)C(=O)C1(C)C`, 105 °C.
With `CCN(CC)C(=O)Oc1nc(-c2ccc(C)cc2)cc2ccccc12` the figure was 98 °C; with `N#Cc1c(Cl)c(Cl)c(NCCN)c(Cl)c1Cl`, 140 to 144 °C; with `C[C@H](O)c1nnc(-c2ccc3occ(-c4ccc(S(C)(=O)=O)cc4)c3c2)o1`, 175 to 176 °C.
`CC(C)C[C@H](NC(=O)OCc1ccccc1)C(=O)N[C@@H](Cc1ccccc1)C(=O)CN1CCN(C)CC1` came in with a melting point of 99 to 100 °C.
With `OCCOc1ccc2ccn(C3CCN(CCc4ccc(F)cc4)CC3)c2c1` the figure was 118 to 119 °C.
Take `CC=CC(=O)c1ccc(CCCCNC(C)=O)cc1`: the melting point was 64 to 66 °C.
`CCOC(=O)c1ccc(OCCCCCCCCCCC(C(=O)CC)C(=O)CC)cc1` registered a melting point of 45 to 46 °C.
